From patent EP0539170A1, “Benzodiazepine derivatives and their use as antagonists of cholecystokinin and/or gastrin receptors” (priority 1991, dated 1993) come the findings set out here.

A word on the pIC50: it is −log10 of the IC50, conventionally taken in molar units.

The structures appear in SMILES notation. pIC50: −log10 of the molar value. Where a name gives a salt, the structure may show the parent alone.

For this assay, the target named is T1, CCK Receptor (Pancreas) (Rattus norvegicus, UniProt P30551).
T1 construct: The whole pancreas was dissected free of fat tissue and was homogenized; from tissue; host or cells: rat pancreas membrane homogenate
T1 sequence (P30551 1-444): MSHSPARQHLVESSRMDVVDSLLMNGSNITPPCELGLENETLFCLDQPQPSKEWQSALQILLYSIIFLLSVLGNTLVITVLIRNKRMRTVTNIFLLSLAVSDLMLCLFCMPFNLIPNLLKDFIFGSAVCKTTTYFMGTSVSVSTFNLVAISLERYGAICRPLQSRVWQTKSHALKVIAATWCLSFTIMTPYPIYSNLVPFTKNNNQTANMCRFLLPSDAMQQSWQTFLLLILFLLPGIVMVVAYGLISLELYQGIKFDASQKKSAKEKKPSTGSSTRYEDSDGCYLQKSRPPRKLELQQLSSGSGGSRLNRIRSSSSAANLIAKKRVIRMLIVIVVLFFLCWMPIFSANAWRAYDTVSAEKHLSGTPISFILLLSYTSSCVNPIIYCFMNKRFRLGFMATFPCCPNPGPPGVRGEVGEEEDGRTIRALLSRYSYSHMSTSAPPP
Kind of assay: CCK Receptor Binding (Pancreas), inhibition of specific 125I-CCK-8 binding. Details: species or system Sprague-Dawley rats. Particulars: rat whole pancreas membranes; 50 pM 125I-CCK-8; 25°C for 2 hours. On the procedure:
CCK-8 sulphated was radiolabelled with ¹²⁵I-Bolton Hunter reagent (2000 Ci/mmole). Receptor binding was performed according to Chang and Lotti (Proc. Natl. Acad. Sci. 83, 4923-4926, 1986) with minor modifications.
Male Sprague-Dawley rats (150-200g) were sacrificed by decapitation. The whole pancreas was dissected free of fat tissue and was homogenized in 25 volumes of ice-cold 10 mM N-2-hydroxyethyl-piperazine-N′-2-ethane sulphonic acid (HEPES) buffer with 0.1% soya bean trypsin inhibitor (pH 7.4 at 25°C) with a Kinematica Polytron. The homogenates were centrifuged at 47,800 g for 10 min. Pellets were resuspended in 10 volumes of binding assay buffer (20mM (HEPES)), 1mM ethylene glycol-bis-(β-aminoethylether-N,N′-tetraacetic acid) (EGTA), 5mM MgCl₂, 150 mM NaCl, bacitracin 0.25 mg/ml, soya bean trypsin inhibitor 0.1 mg/ml, and bovine serum albumin 2 mg/ml pH 6.5 at 25°C) using a Teflon (trademark) homogenizer, 15 strokes at 500 rpm. The homogenate was further diluted in binding assay buffer to give a final concentration of 0.5 mg original wet weight/1 ml buffer. […] All assays were run in duplicate. The reaction mixtures were incubated at 25°C for 2 hours and the reaction terminated by rapid filtration (Brandell 24 well cell harvester) over Whatman GF/C filters, washing 3 x 4 mls with ice-cold 100 Mm NaCl. The radioactivity on the filters was counted with a LKB gamma counter.
Drug displacement studies were performed with at least 10 concentrations of compounds of Formula I and the IC₅₀ values were determined by regression analysis IC₅₀ refers to the concentration of the compound required to inhibit 50% of specific binding of ¹²⁵I-CCK-8.
Compound `CN1C(=O)C(NC(=O)Nc2cccc(C(F)(F)F)c2)N=C(N2CCCCCC2)c2ccccc21` (racemic) [Example 48, N-[3(R,S)-2,3-Dihydro-5-(homopiperidin-1-yl)-1-methyl-2-oxo-1H-1,4-benzodiazepin-3-yl]-N′-[3-trifluoromethylphenyl] urea] had a pIC50 of 7.50. With `CN(C)c1cccc(NC(=O)NC2N=C(N3CCCCCC3)c3ccccc3N(C)C2=O)c1` (racemic) [Example 49, N-[3(R,S)-2,3-Dihydro-5-(homopiperidin-1-yl)-1-methyl-2-oxo-1H-1,4-benzodiazepin-3-yl]-N′-[3-(dimethylamino)phenyl] urea] the figure was 7.24.

In the case of `CN1C(=O)C(NC(=O)Nc2ccc(C(C)(C)C)cc2)N=C(N2CCCCCC2)c2ccccc21` (racemic) [Example 50, N-[3(R,S)-2,3-Dihydro-5-(homopiperidin-1-yl)-1-methyl-2-oxo-1H-1,4-benzodiazepin-3-yl]-N′-[4-t-butylphenyl] urea], the pIC50 is 6.09. With `CCCN1C(=O)C(NC(=O)Nc2ccc(N(C)C)cc2)N=C(N2CCN(C)CC2)c2ccccc21` (racemic) [Example 53, N-[3(R,S)-2,3-Dihydro-5-(4-methylpiperazin-1-yl)-2-oxo-1-propyl-1H-1,4-benzodiazepin-3-yl]-#′-[4-(dimethylamino)phenyl] urea] the figure was under 5.52; with `CC(C)c1ccc(NC(=O)NC2N=C(N3CCCCCC3)c3ccccc3N(C)C2=O)cc1` (racemic) [Example 54, N-[3(R,S)-2,3-Dihydro-5-(homopiperidin-1-yl)-1-methyl-2-oxo-1H-1,4-benzodiazepin-3-yl]-N′-[4-isopropylphenyl] urea], 6.40; with `CCCN1C(=O)C(NC(=O)Nc2cccc(C)c2)N=C(N2CCSCC2)c2ccccc21` (racemic) [Example 55, N-[3(R,S)-2,3-Dihydro-2-oxo-1-propyl-5-(thiomorpholin-4-yl)-1H-1,4-benzodiazepin-3-yl]-N′-[3-methylphenyl] urea], 6.47. Then `CCCN1C(=O)C(NC(=O)Nc2ccc3c(c2)N(C)CC3)N=C(N2CCN(C)CC2)c2ccccc21` (racemic) [Example 56, N-[3(R,S)-2,3-Dihydro-5-(4-methylpiperazin-1-yl)-2-oxo-1-propyl-1H-1,4-benzodiazepin-3-yl]-N#MIN#-[1-methyl-6-indolinyl] urea], with under 5.52; and `CN1C(=O)C(NC(=O)Nc2ccc(F)c(F)c2)N=C(N2CCCCCC2)c2ccccc21` (racemic) [Example 57, N-[3(R,S)-2,3-Dihydro-5-(homopiperidin-1-yl)-1-methyl-2-oxo-1H-1,4-benzodiazepin-3-yl]-N′-[3,4-difluorophenyl] urea], with 7.78. `CN1C(=O)C(NC(=O)Nc2cccc(F)c2)N=C(N2CCCCCC2)c2ccccc21` (racemic) [Example 60, N-[3(R,S)-2,3-Dihydro-5-(homopiperidin-1-yl)-1-methyl-2-oxo-1H-1,4-benzodiazepin-3-yl]-N′-[3-fluorophenyl] urea] had a pIC50 of 8.15.

As for `Cc1cccc(NC(=O)NC2N=C(N3CCCCCCCC3)c3ccccc3N(C)C2=O)c1` (racemic) [Example 61, N-[3(R,S)-2,3-Dihydro-1-methyl-5-(octamethyleneimin-1-yl)-2-oxo-1H-1,4-benzodiazepin-3-yl]-N#MIN#-[3-methylphenyl] urea], the pIC50 is 7.44. Compound `CN1C(=O)C(NC(=O)Nc2cccc(-c3cc(=O)c(O)co3)c2)N=C(N2CCCCCC2)c2ccccc21` (racemic) [Example 62, N-[3(R,S)-2,3-Dihydro-5-(homopiperidin-1-yl)-1-methyl-2-oxo-1H-1,4-benzodiazepin-3-yl]-N′-[3-(5-hydroxy-4-pyron-2-yl)phenyl] urea] had a pIC50 of 7.67. `CCc1cccc(NC(=O)NC2N=C(N3CCCCCC3)c3ccccc3N(C)C2=O)c1` (racemic) [Example 63, N-[3(R,S)-2,3-Dihydro-5-(homopiperidin-1-yl)-1-methyl-2-oxo-1H-1,4-benzodiazepin-3-yl]-N′-[3-ethylphenyl] urea]: the pIC50 was 8.36. This pIC50 lies 0.69 log units higher than the previous one. Then `CCN1C(=O)C(NC(=O)Nc2cccc(C)c2)N=C(N2CCCCCC2)c2ccccc21` (racemic) [Example 64, N-[3(R,S)-2,3-Dihydro-1-ethyl-5-(homopiperidin-1-yl)-2-oxo-1H-1,4-benzodiazepin-3-yl]-N′-[3-methylphenyl] urea], with 8.44. With `Cc1cccc(NC(=O)NC2N=C(N3CCSCC3)c3ccccc3N(C)C2=O)c1` (racemic) [Example 65, N-[3(R,S)-2,3-Dihydro-1-methyl-2-oxo-5-(thiomorpholin-4-yl)-1H-1,4-benzodiazepin-3-yl]-N′-[3-methylphenyl] urea] the figure was 7.76; with `CN1C(=O)C(NC(=O)Nc2ccccc2)N=C(N2CCCCCC2)c2ccccc21` (racemic) [Example 66, N-[3(R,S)-2,3-Dihydro-5-(homopiperidin-1-yl)-1-methyl-2-oxo-1H-1,4-benzodiazepin-3-yl]-N′-phenyl urea], 7.85. With `CCc1cccc(NC(=O)NC2N=C(N3CCN(C)CC3)c3ccccc3N(CC(C)C)C2=O)c1` (single isomer, unassigned; (+)) [Example 27, (+)-N-[2,3-Dihydro-5-(4-methylpiperazin-1-yl)-1-(2-methylpropyl)-2-oxo-1H-1,4-benzodiazepin-3-yl]-N#MIN#-[3-ethylphenyl] urea] the figure was 5.51.

As to `CCCN1C(=O)C(NC(=O)Nc2cccc(NC(=O)NC)c2)N=C(N2CCN(C)CC2)c2ccccc21` (single isomer, unassigned; (+)) [Example 40, (+)-N-[2,3-Dihydro-5-(4-methylpiperazin-1-yl)-2-oxo-1-propyl-1H-1,4-benzodiazepin-3-yl]-N′-[3-(methylaminocarbonylamino)phenyl] urea], the pIC50 is under 5.52.

`Cc1cccc(NC(=O)NC2N=C(N3CCCCCCC3)c3ccccc3N(C)C2=O)c1` (single isomer, unassigned; (+)) [Example 52, (+)-N-[2,3-Dihydro-5-(heptamethyleneimin-1-yl)-1-methyl-2-oxo-1H-1,4-benzodiazepin-3-yl]-N′-[3-methylphenyl] urea hydrochloride] had a pIC50 of 7.93. With `CN1C(=O)C(NC(=O)Nc2ccc3c(c2)CCC3)N=C(N2CCCCCC2)c2ccccc21` (single isomer, unassigned; (+)) [Example 59, (+)-N-(2,3-Dihydro-5-(homopiperidin-1-yl)-1-methyl-2-oxo-1H-1,4-benzodiazepin-3-yl]-N′-[5-indanyl] urea hydrochloride] the figure was 8.05. Then `CCc1cccc(NC(=O)NC2N=C(N3CCCCCC3)c3ccccc3N(C)C2=O)c1` (single isomer, unassigned; (+)) [Example 68, (+)-N-[2,3-Dihydro-5-(homopiperidin-1-yl)-1-methyl-2-oxo-1H-1,4-benzodiazepin-3-yl]-N′-[3-ethylphenyl] urea hydrochloride], with 8.46. Then `CCCN1C(=O)C(NC(=O)Nc2cccc(C)c2)N=C(N2CCSCC2)c2ccccc21` (single isomer, unassigned; (+)) [Example 70, (+)-N-[2,3-Dihydro-2-oxo-1-propyl-5-(thiomorpholin-4-yl)-1H-1,4-benzodiazepin-3-yl]-N′-[3-methylphenyl] urea hydrochloride], with 7.98; and `CCCN1C(=O)C(NC(=O)Nc2cccc(C)c2)N=C(N2CCN(C)CC2)c2ccccc21` (single isomer, unassigned; (-)) [Example 24, (-)-N-(2,3-Dihydro-5-(4-methylpiperazin-1-yl)-2-oxo-1-propyl-1H-1,4-benzodiazepin-3-yl]-N′-[3-methylphenyl] urea], with under 5.52. In turn, `CCc1cccc(NC(=O)NC2N=C(N3CCN(C)CC3)c3ccccc3N(CC(C)C)C2=O)c1` (single isomer, unassigned; (-)) [Example 26, (-)-N-[2,3-Dihydro-5-(4-methylpiperazin-1-yl)-1-(2-methylpropyl)-2-oxo-1H-1,4-benzodiazepin-3-yl]-N#MIN#-[3-ethylphenyl] urea] gave a pIC50 of 5.33.
